Results on twelve molecules are retold here after US20230293521A1, “METHODS FOR SCREENING NOVEL CORONAVIRUS ANTIVIRALS AND METHODS OF USING ANTIVIRALS FOR THE TREATMENT OF CORONAVIRUS INFECTIONS” (priority 2020, published 2023).

The IC50 is the point on the concentration scale where inhibition reaches its midpoint.

Like-named read-outs stand apart in the source and are kept apart here.

Data set [1] relates to SARS-CoV-2. The data set is described as follows: microbe, parasite or virus in culture. Format: cell-based. The settings on record: for IC50: Calu-3, pre-treated 1 hour, MOI 0.01, supernatants at 48 hpi.
Data set [2] has as its system SARS-CoV-2 replication centers. In words: Confocal immunofluorescence of SARS-CoV-2 N and dsRNA replication centers in Calu-3 cells. Format: cell-based. The settings on record: for distribution of SARS-CoV-2 N and dsRNA (replication center formation): Calu-3, pre-treated, MOI 3, fixed at 24 h.p.i.; for IC90: read-out: approximate IC90 (concentration used for pre-treatment).

Data set [3] concerns SARS-CoV-2 genomic RNA, subgenomic N RNA and NSP14 RNA. Format: cell-based. The settings on record: for viral RNA levels: Calu-3, both MOI 0.01 and 1; for reduction in RNA synthesis compared with reduction in viral titers: Calu-3, 24 hpi.
Data set [4] concerns SARS-CoV-2. In words: microbe, parasite or virus in culture. The data set is classed as cell-based.
Data set [5] deals with SARS-CoV-2. In words: Time of addition studies, impedance assay in VeroE6 cells. The data set is classed as cell-based. The settings on record: for inhibition of SARS-CoV-2 replication, single treatment 1 hour prior to infection, compound removed prior to infection: VPS34 inhibitors at 5 µM; for inhibition of SARS-CoV-2 replication, compound added up to 4 hpi: dosing at 2 hpi or 4 hpi, compound maintained.

Another data set has as its system VPS34. Format: cell-based. The settings on record: Huh7, 24 hours treatment; VPS34-IN1 2 µM, PIK-III, SAR405, Compound 19 5 µM, Orlistat 200 µM.
The subject of the next data set is Vero E6 cells. The settings on record: for cytotoxicity (rapid decrease in resistance between 1 and 20 hpi): at 50 µM and 16.67 µM.
Setting [6] is: Severe acute respiratory syndrome coronavirus 2, Calu-3.

Regarding `CCCCCCCCCCCCCCC(Br)C(=O)O` (stereo not drawn) [2-bromopalmitate], the “concentrations at which infectious virus production was inhibited” value with SARS-CoV-2 [1] (Calu-3, MOI 0.01, 48 hpi) is given as “greater than 10 µM”. Further, the IC50 in the data set on SARS-CoV-2 [1] was determined as 23 µM. The “distribution of SARS-CoV-2 N and dsRNA (replication center formation)” value (“distribution of SARS-CoV-2 N and dsRNA” below) in data set [2] is listed as “fewer but larger foci positive for both markers”. The “viral RNA levels” value in data set [3] is recorded as “reduced RNA levels”.
With `O=C(Nc1ccccc1)Nc1ccc(-c2ccc(C(=O)[C@@H]3CCC[C@H]3C(=O)O)cc2)cc1` [A922500], in the data set with SARS-CoV-2 [1], the IC50 came to 4.02 µM. In addition, the “distribution of SARS-CoV-2 N and dsRNA” value in data set [2] is “loss of these distinct puncta and dispersion of dsRNA and SARS-CoV-2 N”. The “reduction in RNA synthesis compared with reduction in viral titers” value in data set [3] is reported as “significantly less substantial than the reduction in viral titers”.
Consider `Cc1nc(NC(=O)N2CCC[C@H]2C(N)=O)sc1-c1ccnc(C(C)(C)C(F)(F)F)c1` [BYL719], for which, in the data set on SARS-CoV-2 [4], the “decrease in viral titers” value stood at 1 log and the “inhibition of SARS-CoV-2 replication” value is reported as “little inhibition was detected”.
On to `C=C1C(=O)O[C@H](CCCCCCCC)[C@H]1C(=O)O` [C75, tetrahydro-4-methylene-2R-octyl-5-oxo-3S-furancarboxylic acid], for which the IC50 in the data set on SARS-CoV-2 [1] worked out at 22.8 µM.
For the molecule `CCOC(=O)[C@@]1(CCCCCCOc2ccc(Cl)cc2)CO1` [Etomoxir], in the data set on SARS-CoV-2 [1] (Calu-3, MOI 0.01, 48 hpi), the “inhibition of SARS-CoV-2” value is on record as “Neither compound showed any inhibition”.
Consider `CCCCCCCCCCC[C@@H](C[C@@H]1OC(=O)[C@H]1CCCCCC)OC(=O)[C@H](CC(C)C)NC=O` [Orlistat], for which, in the data set with SARS-CoV-2 [5], the “inhibition of SARS-CoV-2 replication, single treatment 1 hour prior to infection, compound removed prior to infection” value (“inhibition … to infection” below) is given as “minimal efficacy” and the “inhibition of SARS-CoV-2 replication, compound added up to 4 hpi” value (“inhibition … to 4 hpi” below) is “remained inhibitory”. In the data set with SARS-CoV-2 [4] (setting [6]), the IC50 was found to be 21200 nM. Also, in the data set on VPS34, the “effect on GFP-2xFYVE localization to endosomes” value is “did not affect GFP-2xFYVE localization”. Further, the “distribution of SARS-CoV-2 N and dsRNA” value in data set [2] is “loss of these distinct puncta and dispersion of dsRNA and SARS-CoV-2 N”. For the same molecule, the IC90 in data set [2] (setting [6]) is ~500 µM. Also, the “viral RNA levels” value in data set [3] is recorded as “reduced RNA levels”. Moreover, the “early cytotoxic effects (1-20 hours post-treatment)” value with Vero E6 cells is listed as “neither Orlistat nor Triacsin C induced early cytotoxic effects”.
Regarding `Nc1ncc(-c2ccnc(Nc3ccncc3)n2)c(CC2CC2)n1` [PIK-III], in the data set with SARS-CoV-2 [5], the “inhibition … to infection” value is “inhibited SARS-CoV-2 replication” and the “inhibition … to 4 hpi” value is recorded as “inhibition could be observed”. In the data set on SARS-CoV-2 [4] (setting [6]), this molecule came in with an IC50 of 120 nM. Further, in data set [2] (setting [6]), the IC90 is ~5 µM. Further, in the data set with Vero E6 cells, the “toxicity at the remaining concentrations” value is on record as “no toxicity was observed”. In addition, in the data set with Vero E6 cells (Vero E6), the “cytotoxicity (rapid decrease in resistance between 1 and 20 hpi)” value is “induced rapid cytotoxicity”.
Turning to `C[C@@H]1COCCN1c1cc(=O)n2c(n1)N(Cc1cncc(Cl)c1)[C@H](C(F)(F)F)CC2` [SAR405], in the data set with SARS-CoV-2 [4] (setting [6]), half-maximal inhibition (IC50) required 376 nM.
Regarding `CCCCCCCCCCCCCCOc1ccc(C(=O)O)o1` [TOFA, 5-(Tetradecyloxy)-2-furoic acid], the 50% inhibitory concentration (IC50) in the data set on SARS-CoV-2 [1] (Severe acute respiratory syndrome coronavirus 2) amounted to 1.34 µM. For the same molecule, in data set [2], the “distribution of SARS-CoV-2 N and dsRNA” value was “loss of these distinct puncta and dispersion of dsRNA and SARS-CoV-2 N”. Further, the “reduction in RNA synthesis compared with reduction in viral titers” value in data set [3] is “significantly less substantial than the reduction in viral titers”.
On to `CCC/C=C/C/C=C/C=C/C=N/NN=O` [Triacsin C], for which, in the data set with SARS-CoV-2 [5], the “inhibition … to infection” value is given as “minimal efficacy” and the “inhibition … to 4 hpi” value is listed as “remained inhibitory”. Moreover, in the data set on SARS-CoV-2 [4], the IC50 came out at 40 nM. Also, in data set [2], the “distribution of SARS-CoV-2 N and dsRNA” value is listed as “fewer but larger foci positive for both markers”. In addition, in data set [2] (Calu-3), the IC90 is ~50 µM. Further, the “viral RNA levels” value in data set [3] is on record as “reduced RNA levels”. The “early cytotoxic effects (1-20 hours post-treatment)” value with Vero E6 cells (even at the highest concentrations of 50 µM and 500 µM, respectively, Vero E6) was “neither Orlistat nor Triacsin C induced early cytotoxic effects”.
Take `COc1ccc(CN2CCNCC2)c(OC)c1OC` [Trimetazidine]: the “inhibition of SARS-CoV-2” value in the data set on SARS-CoV-2 [1] (Calu-3, MOI 0.01, 48 hpi) was “Neither compound showed any inhibition”.
Regarding `CC(C)(O)CNc1ncc(-c2ccnc(Nc3ccncc3)n2)c(CC2CC2)n1` [VPS34-IN1], in the data set with SARS-CoV-2 [5], the “inhibition … to infection” value is “inhibited SARS-CoV-2 replication” and the “inhibition … to 4 hpi” value was “inhibition could be observed”. The molecule further came in with an IC50 with SARS-CoV-2 [4] (setting [6]) of 550 nM. Moreover, the “distribution of SARS-CoV-2 N and dsRNA” value in data set [2] was “loss of these distinct puncta and dispersion of dsRNA and SARS-CoV-2 N”. For the same molecule, the IC90 in data set [2] (setting [6]) is ~5 µM. Further, the “viral RNA levels” value in data set [3] is reported as “reduced RNA levels”. In addition, the “toxicity at the remaining concentrations” value with Vero E6 cells is recorded as “no toxicity was observed”. The “cytotoxicity (rapid decrease in resistance between 1 and 20 hpi)” value in the data set on Vero E6 cells (Vero E6) is on record as “induced rapid cytotoxicity”.
